Activity calls are given as the source filed them. The rule behind the calls is not given here.
Key:
[1] = target: T1, Forkhead box protein O3 (Homo sapiens, UniProt O43524); assay: Induction of FOXO3a binding to SIRT1 in HUVEC at 50 uM after 24 hrs by chromatin immunoprecipitation assay
[2] = test system: HUVEC; assay: Induction of SIRT1 mRNA expression in HUVEC by quantitative RT-PCR analysis; format: functional, cell-based; conditions: Homo sapiens
[3] = test system: HUVEC; assay: Induction of SIRT1 mRNA expression in HUVEC after 24 hrs by luciferase reporter gene assay relative to untreated control; format: functional, cell-based; conditions: Homo sapiens
[4] = target: T1, Forkhead box protein O3; assay: Binding affinity to His-tagged FOXO3a (unknown origin) by SPR analysis
[5] = test system: HUVEC; assay: Cytotoxicity against HUVEC assessed as cell viability at 5 to 300 uM after 24 hrs by MTT assay; format: cell-based; conditions: human
[6] = test system: HUVEC; assay: Induction of SIRT1 mRNA expression in HUVEC at 5 to 100 uM by quantitative RT-PCR analysis; format: functional, cell-based; conditions: Homo sapiens
[7] = test system: HUVEC; assay: Induction of SIRT1 mRNA expression in HUVEC at 5 to 100 uM after 24 hrs by luciferase reporter gene assay relative to untreated control; format: functional, cell-based; conditions: Homo sapiens

T1 sequence (O43524 whole entry): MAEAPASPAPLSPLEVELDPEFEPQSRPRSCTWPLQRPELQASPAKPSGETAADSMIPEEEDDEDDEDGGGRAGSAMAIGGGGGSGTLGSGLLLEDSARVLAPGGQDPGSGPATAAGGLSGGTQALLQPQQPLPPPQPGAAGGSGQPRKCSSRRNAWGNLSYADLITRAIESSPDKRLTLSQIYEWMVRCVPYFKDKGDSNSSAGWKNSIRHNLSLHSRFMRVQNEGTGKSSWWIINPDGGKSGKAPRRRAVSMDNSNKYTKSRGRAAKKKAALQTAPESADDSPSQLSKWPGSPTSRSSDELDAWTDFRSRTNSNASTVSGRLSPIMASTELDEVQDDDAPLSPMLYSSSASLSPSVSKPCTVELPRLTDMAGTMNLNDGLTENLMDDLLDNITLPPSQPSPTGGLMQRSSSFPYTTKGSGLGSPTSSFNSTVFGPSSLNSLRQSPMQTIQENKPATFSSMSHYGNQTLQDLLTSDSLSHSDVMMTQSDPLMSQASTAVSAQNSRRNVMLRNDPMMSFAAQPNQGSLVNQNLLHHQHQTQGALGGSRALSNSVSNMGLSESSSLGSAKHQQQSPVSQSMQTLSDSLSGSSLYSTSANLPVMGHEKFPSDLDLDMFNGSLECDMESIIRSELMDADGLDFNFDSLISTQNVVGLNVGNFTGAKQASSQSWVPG

| Activity [1] | Activity [3] | Kd [4] [µM] | Activity [4] | Activity [7] | SMILES | Activity [2] | Activity [5] | Activity [6] |
| --- | --- | --- | --- | --- | --- | --- | --- | --- |
| Active | Dose-dependent effect | 1730 |  |  | COc1cc([C@H]2OC[C@H]3[C@@H]2CO[C@@H]3c2cc(OC)c(O)c(OC)c2)cc(OC)c1O [SYRINGARESINOL] | Dose-dependent effect | Non-toxic |  |
| inactive |  |  | inactive | inactive | COc1cc([C@@H]2OC[C@@H]3[C@H]2CO[C@H]3c2cc(OC)c(O)c(OC)c2)cc(OC)c1O |  | Non-toxic | inactive |

From ChEMBL document CHEMBL3352120, “Enantioselective induction of SIRT1 gene by syringaresinol from Panax ginseng berry and Acanthopanax senticosus Harms stem” (Bioorg Med Chem Lett, 2015)
